The results in this text go back to patent US12521393B2, “Cytotoxicity targeting chimeras for CCR2-expressing cells” (GLAXOSMITHKLINE INTELLECTUAL PROPERTY DEVELOPMENT LIMITED, priority 2021, dated 2026).

The target in data set [1] is T1, CHOK1 cells engineered to overexpress human CCR2 (Homo sapiens, UniProt P41597).
T1 construct: expressed in transfected cells; host or cells: CHOK1
Put plainly: Antibody dependent cellular cytotoxicity (ADCC) reporter assay (Example 199). It counts as cell-based. To be noted: with anti-cotinine antibody (SEQ ID NO: 11/12); Jurkat FcγRIIIa NFAT-luciferase reporter cells; 12-18 hours; EC50 in molar; average or individual runs; read-out: ADCC Reporter Assay pEC50 (converted). The protocol:
An antibody dependent cellular cytoxocity reporter assay was conducted using the following four assay components: (i) ARM compound of Formula (I) targeting CCR2 (concentrations ranging from […] to 10 μM) (ii) anti-cotinine antibody having a heavy chain sequence of SEQ ID NO: 11 and a light chain sequence of SEQ ID NO: 12 (rabbit variable region with human IgG1 Fc domain containing a DE mutation (S239D/1332E)) (concentrations ranging from 0.01 μg/mL to 200 μg/mL); (iii) target cells: CHOK1 cells engineered to overexpress either human CCR2 (typically 1000-20,000 cells per well) and (iv) reporter cells: Jurkat cells engineered to express FcγRIIIa with the reporter gene luciferase under the control of the NFAT promoter (typically 3000-75,000 cells per well). Reagents were combined in a final volume of 20 μL in a 384-well tissue culture treated plate. All four assay components were incubated together for about 12-18 hours. Thereafter, BioGlo Detection reagent (Promega) was added to the wells to lyse the cells and provide a substrate for the luciferase reporter protein. Luminescence signal was measured on a microplate reader and signal: background was calculated by dividing the signal of a test well by the signal obtained when no heterobivalent compound of Formula (I) was added. EC50 calculations were done using Graphpad Prism Software, specifically a nonlinear regression curve fit (Y=Bottom+(Top−Bottom)/(1+10A((LogEC50−X)*HillSlope))).
ARMs compounds of Formula (I) of the invention were tested for ADCC activity in the above assay in or more experimental runs and the results are shown in Table 3 below. Potency of the compounds of Formula (I) of the invention is reported as a pEC50 value. The pEC50 value is the negative log of the EC50 value, wherein the EC50 value is the half maximal effective concentration measured in molar (M). For compounds tested in more than one experimental run, the pEC50 value is reported as an average.
In general terms: In a reporter assay the amount or activity of a reporter protein is the signal.

Data set [2] deals with endogenous target monocytes in human PBMC. Kind of data set: PBMC ex vivo monocyte depletion flow cytometry assay (Example 200). The class given is cell-based. Particulars: with anti-cotinine antibody (SEQ ID NO: 11/12), 18-24 hours, EC50 in molar, read-out: Ex Vivo Depletion Assay pEC50 (converted). An outline of the steps: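 Monocyte depletion is reported as pEC50, averaged or given individually across runs, and read by flow cytometry staining CD45, CD14 and CD4 with a viability dye. Compounds, diluted four-fold over 11 points from 1 mM DMSO stocks, were combined with 30 μg/mL Fc-enhanced anti-cotinine antibody and human PBMC, then incubated 18-24 h at 37° C.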

Data set [3] relates to CCR2 expressing cells (CD11b+Ly6c+Hi) in peripheral blood. Kind of data set: In vivo depletion assay, flow cytometry of peripheral blood (Example 201). On the set-up: species or system human CCR2 knock-in mice (C57 background). Particulars: hCCR2 knock-in mice, IV 0.1 mpk compound + 10 mpk anti-cotinine antibody (SEQ ID NO: 13/14), peripheral blood at 48 hr. In outline:
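Mice dosed with compound formulated in saline/DMSO/PBS, with anti-cotinine antibody (rabbit variable region, mouse IgG2a Fc) where required, pre-incubated 30 min at room temperature. Terminal peripheral blood RBC-lysed, Fc-blocked, stained for CD45, CD3, CD11b, Ly6C, human CCR2 and 7AAD; percent depletion of CD11b+Ly6c+Hi cells determined by flow cytometry.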

Data set [4] can be described thus: Blood drug concentration analysis by LC-MS/MS after IV dosing with anti-cotinine antibody (Example 201). The class given is in vivo. Particulars: C57 background, human CCR2 knock-in, mouse; hCCR2 knock-in mice, IV 0.1 mpk compound + 10 mpk anti-cotinine antibody, whole blood, 48 hours post-dose; read-out: Exposure of Compound of Formula (I) 48 hours post-dose. The protocol:
After bleeding, each mouse was sacrificed by cervical dislocation. […] Flow Cytometry Analysis:
Samples were analyzed on Q-Trap. […] The total run time was 2 minutes.

For the compound `CC(C)N(C)[C@@H]1CC[C@H](N2CC[C@H](Nc3ncnc4ccc(C(F)(F)F)cc34)C2=O)[C@H](NC(=O)[C@H]2CC[C@@H](N3CCN(S(=O)(=O)C4CCN(C(=O)[C@H](C)NC(=O)[C@H]5CC(=O)N(C)[C@@H]5c5cccnc5)CC4)CC3)CC2)C1` [Example 71, (2S,3S)-N-((S)-1-(4-((4-((1S,4R)-4-(((1R,2S,5R)-5-(Isopropyl(methyl)amino)-2-((S)-2-oxo-3-((6-(trifluoromethyl)quinazolin-4-yl)amino)pyrrolidin-1-yl)cyclohexyl)carbamoyl)cyclohexyl)piperazin-1-yl)sulfonyl)piperidin-1-yl)-1-oxopropan-2-yl)-1-methyl-5-oxo-2-(pyridin-3-yl)pyrrolidine-3-carboxamide], the EC50 in data set [1] was 10 nM; in data set [2] it was 0.794 nM. Besides, in data set [3], the “% Depletion of CCR2 expressing cells” value is listed as 35.25%. Also, the concentration at 48 h in data set [4] was 1 ng/mL.

Turning to `CC(C)N(C)[C@@H]1CC[C@H](N2CC[C@H](Nc3ncnc4ccc(C(F)(F)F)cc34)C2=O)[C@H](NC(=O)[C@H]2CC[C@H](N3CCN(S(=O)(=O)C4CCN(C(=O)[C@H](C)NC(=O)[C@H]5CC(=O)N(C)[C@@H]5c5cccnc5)CC4)CC3)CC2)C1` [Example 70, (2S,3S)-N-((S)-1-(4-((4-((1R,4S)-4-(((1R,2S,5R)-5-(isopropyl(methyl)amino)-2-((S)-2-oxo-3-((6-(trifluoromethyl)quinazolin-4-yl)amino)pyrrolidin-1-yl)cyclohexyl)carbamoyl)cyclohexyl)piperazin-1-yl)sulfonyl)piperidin-1-yl)-1-oxopropan-2-yl)-1-methyl-5-oxo-2-(pyridin-3-yl)pyrrolidine-3-carboxamide], the EC50 in data set [1] was 0.794 nM; in data set [2] it was 0.1 nM. Moreover, the “% Depletion of CCR2 expressing cells” value in data set [3] was found to be 30.51%. For the same compound, the concentration at 48 h in data set [4] is 2.3 ng/mL.
